Test system: COR L88 complex tumor spheroid viability
Experiment: Anticancer human tumor COR L88 cell line growth inhibition;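 further: compound exposure lasted 7 days before viability readout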;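 on viability, T/C: percent of DMSO vehicle-treated spheroids = 100%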
Conditions: for IC50: curve of first compound; for viability, T/C: stronger effect = lower value
From the text: Multicellular complex tumor spheroid response to DNA repair inhibitors in combination with DNA-damaging drugs
This study explores the anticancer activities of DNA-damaging drugs and inhibitors of DNA damage repair, both as single agents and in combinations. Complex tumor spheroids comprised of malignant cells, endothelial cells and mesenchymal stem cells served as an in vitro model for human solid tumors. This model system incorporates physiologically relevant features and patient-derived or established malignant cell lines with clinically relevant genetic alterations from many tumor types. Twenty-six patient-derived or established malignant cell lines were evaluated representing sarcoma, melanoma, small cell lung cancer (SCLC), non-small cell lung cancer (NSCLC), as well as bladder, ovarian and pancreatic cancers. The concentration ranges selected for each drug and investigational agent were based upon clinically achievable concentrations if the clinical Cmax of the agent was known.
Compounds. The drugs and compounds olaparib (NSC753686), talazoparib (NSC767125), berzosertib (NSC777718), elimusertib (NSC800525), nedisertib (NSC802822), VX-984 (NSC792969), AZD-1390 (NSC803789), temozolomide (NSC362856), topotecan (NSC609699), trabectedin (NSC813783), staurosporine (NSC755774), and gemcitabine (NSC613327) were obtained from the National Cancer Institute (NCI) Developmental Therapeutics Program Chemical Repository. The FDA-approved anticancer drug set is available from the Developmental Therapeutics Program at https://dtp.cancer.gov/organization/dscb/obtaining/available_plates.htm. […] The stock solutions were prepared in dimethyl sulfoxide (DMSO, Sigma-Aldrich, St. Louis, MO, cat. D2650) at 400-fold the tested concentration and stored at -70 degrees C. Prior to their use, the stock solutions were diluted in fresh medium and the final DMSO concentration in the assay was 0.25% (v/v). All drugs and investigational agents were tested over a range starting from a high concentration at or near the clinical Cmax and decreasing in half-log increments. If the clinical Cmax for an agent had not been determined, the highest concentration tested was 10 microM.
Cell Lines. The patient-derived cancer cell (PDC) lines: 156681-154-R-J1-PDC, 283228-195-R-J1-PDC, 287954-098-R-J1-PDC, 292921-168-R-J2-PDC, 349418-098-R-PDC, 425362-245-T-J1-PDC, 556581-035-R-J1-PDC, and BL0293-F563-PDC were received from the NCI Patient-Derived Models Repository (PDMR, https://pdmr.cancer.gov). The established cell lines HS-SY-2 (RRID:CVCL_8719), MPNST, and SYO-1 (RRID:CVCL_7146) were obtained from the Sloan Kettering Institute. The alveolar soft parts sarcoma cell line ASPS-1 (RRID:CVCL_S738) was established at the NCI and grown from internal seed stocks. The following established cell lines were purchased from the American Type Culture Collection (ATCC, Manassas, VA): G-401 (ATCC, cat. CRL-1441, RRID:CVCL_0270), SW982 (ATCC, cat. HTB-93, RRID:CVCL_1734), VA-ES-BJ (ATCC, cat. CRL-2138, RRID:CVCL_1785), NCI-H719 (ATCC, cat. CRL-5837, RRID:CVCL_1582), NCI-H196 (ATCC, cat. CRL-5823, RRID:CVCL_1509), NCI-H841 (ATCC, cat. CRL-5845, RRID:CVCL_1595), NCI-H1618 (ATCC, cat. CRL-5879, RRID:CVCL_1480), NCI-H1876 (ATCC, cat. CRL-5902, RRID:CVCL_1503), DMS 114 (ATCC, cat. CRL-2066; RRID:CVCL_1174), NCI-H211 (ATCC, cat. CRL-5824; RRID:CVCL_1529), and SW 1271 (ATCC, cat. CRL-2177, RRID:CVCL_1716). The small cell lung cancer cell line COR-L88 was purchased from Sigma-Aldrich (cat. 92031917-1VL, RRID:CVCL_1141). The non-small cell lung cancer cell lines NCI-H226 (RRID:CVCL_1544) and NCI-H322M (RRID:CVCL_1557) were established at the NCI and grown from internal seed stocks. Pooled donor human umbilical vein endothelial cells (HUVEC, Lonza, cat. CC-2519) and human mesenchymal stem cells (hMSC, Lonza, cat. PT-2501) were purchased from Lonza (Walkersville, MD).
Cell Culture. All cells were maintained in an incubator at 37 degrees C and 5% CO2 with 95% humidity. […]

[1] = second compound 1 µM, first compound 0.0316 µM
[2] = second compound 1 µM, first compound 0.1 µM
[3] = second compound 1 µM, first compound 0.316 µM
[4] = second compound 1 µM, first compound 1 µM
[5] = second compound 1 µM, first compound 3.16 µM
[6] = second compound 1 µM, first compound 10 µM
[7] = second compound 3.16 µM, first compound 0.0316 µM
[8] = second compound 3.16 µM, first compound 0.1 µM
[9] = second compound 3.16 µM, first compound 0.316 µM
[10] = second compound 3.16 µM, first compound 1 µM
[11] = second compound 3.16 µM, first compound 3.16 µM
[12] = second compound 3.16 µM, first compound 10 µM
[13] = second compound 10 µM, first compound 0.0316 µM
[14] = second compound 10 µM, first compound 0.1 µM
[15] = second compound 10 µM, first compound 0.316 µM
[16] = second compound 10 µM, first compound 1 µM
[17] = second compound 10 µM, first compound 3.16 µM
[18] = second compound 10 µM, first compound 10 µM
[19] = second compound 31.6 µM, first compound 0.0316 µM
[20] = second compound 31.6 µM, first compound 0.1 µM
[21] = second compound 31.6 µM, first compound 0.316 µM
[22] = second compound 31.6 µM, first compound 1 µM
[23] = second compound 31.6 µM, first compound 3.16 µM
[24] = second compound 31.6 µM, first compound 10 µM
[25] = second compound 100 µM, first compound 0.0316 µM
[26] = second compound 100 µM, first compound 0.1 µM
[27] = second compound 100 µM, first compound 0.316 µM
[28] = second compound 100 µM, first compound 1 µM
[29] = second compound 100 µM, first compound 3.16 µM
[30] = second compound 100 µM, first compound 10 µM

| SMILES | IC50 (second compound 1 µM) | IC50 (second compound 3.16 µM) | IC50 (second compound 10 µM) | IC50 (second compound 31.6 µM) | IC50 (second compound 100 µM) | viability, T/C [1] | viability, T/C [2] | viability, T/C [3] | viability, T/C [4] | viability, T/C [5] | viability, T/C [6] | viability, T/C [7] | viability, T/C [8] | viability, T/C [9] | viability, T/C [10] | viability, T/C [11] | viability, T/C [12] | viability, T/C [13] | viability, T/C [14] | viability, T/C [15] | other results |
| --- | --- | --- | --- | --- | --- | --- | --- | --- | --- | --- | --- | --- | --- | --- | --- | --- | --- | --- | --- | --- | --- |
| Cc1cc(C)c(CNC(=O)c2cc(-c3ccc(CN4CCOCC4)cc3)cc3c2cnn3C2CCCC2)c(=O)[nH]1 + Cn1nnc2c(C(N)=O)ncn2c1=O | > 10 µM | > 10 µM | > 10 µM | 8.54 µM | 3.35 µM | 102% | 97% | 93% | 86.1% | 76.8% | 53.3% | 101% | 99.5% | 88.5% | 83.2% | 72% | 56.5% | 90.7% | 86.4% | 88.5% | viability, T/C [16]: 75.2%; viability, T/C [17]: 69.8%; viability, T/C [18]: 51.3%; viability, T/C [19]: 86.7%; viability, T/C [20]: 79.1%; viability, T/C [21]: 78%; viability, T/C [22]: 69%; viability, T/C [23]: 56.1%; viability, T/C [24]: 49.7%; viability, T/C [25]: 68.7%; viability, T/C [26]: 62.7%; viability, T/C [27]: 63%; viability, T/C [28]: 52.7%; viability, T/C [29]: 49.1%; viability, T/C [30]: 47% |
| COc1cc(C)[nH]c(=O)c1CN1CCc2c(Cl)cc(C(OC)C3COC3)c(Cl)c2C1=O (stereo not given) + Cn1nnc2c(C(N)=O)ncn2c1=O | > 10 µM | > 10 µM | 0.549 µM | 0.111 µM | < 0.0316 µM | 76.1% | 75% | 71.3% | 65.9% | 67.5% | 66.6% | 74% | 74.8% | 63.4% | 71.6% | 69.7% | 68.7% | 62.7% | 57.4% | 48.8% | viability, T/C [16]: 50.3%; viability, T/C [17]: 46.6%; viability, T/C [18]: 43.2%; viability, T/C [19]: 55.5%; viability, T/C [20]: 51.5%; viability, T/C [21]: 39.7%; viability, T/C [22]: 37%; viability, T/C [23]: 33.3%; viability, T/C [24]: 33.6%; viability, T/C [25]: 49%; viability, T/C [26]: 43.5%; viability, T/C [27]: 37.2%; viability, T/C [28]: 35.3%; viability, T/C [29]: 33.3%; viability, T/C [30]: 31.6% |

Reference: PubChem BioAssay AID1845201 (Molecular Pharmacology Branch, DTP, NCI, 2023)
